Laboratory results as given in patent publication US9169241B2, “Quinolinyloxyphenylsulfonamides” (Max-Planck-Gesellschaft Zur Forderung der Wissenschaften …, priority 2009, dated 2015).
pIC50: −log10 of the molar value. Read-outs that look alike come from different tables or passages of the source.

What was measured:
Hs578T [1] = test: Cell vitality assay (ATP assay, CellTiter-Glo); assay type: cell-based; conditions: Homo sapiens, Hs-578T, 72 h
Summary of the method: (§1)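 Steps: seed 1000 cells per well; add compound (0.195–12.5 μM, 7 points) or DMSO; incubate 72 h; equilibrate to room temperature ~30 min; add reagent, shake 2 min, stand 10 min; read luminescence. IC50 relative to DMSO-control ATP.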

SF126 = test: Cell vitality assay (ATP assay, CellTiter-Glo); assay type: cell-based; conditions: Homo sapiens, SF-126
Summary of the method: as §1

U118 = test: Cell vitality assay (ATP assay, CellTiter-Glo); assay type: cell-based
Summary of the method: as §1

indicated cell line = test: Wound healing migration assay (Table IV); assay type: cell-based; conditions: compounds at 12.5, 6.25, 3.125 μM, 48 h-72 h
Summary of the method: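 Cells seeded at 150000/24 well, grown to monolayer overnight, scratched with a pipette tip, then treated with compound at 12.5, 6.25 or 3.125 μM versus DMSO. Stopped by crystal violet fixation at 48-72 h once control wounds closed; IC50 taken as 50% wound size between t0 and t48 or t72.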

Hs578T [2] = test: Matrigel outgrowth assay/branching assay; assay type: cell-based; conditions: Homo sapiens, Hs-578T; HS578T cell line; Table Ib; read-out: Total branching inhibition in Matrigel HS578T
Summary of the method: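 Cells (5000/well) were seeded onto polymerized 3 mg/ml Matrigel with compound at 3.125, 1.56 or 0.78 μM, or DMSO. Imaging by inverted microscopy at 48, 72 and 96 h scored invasive branching. Only concentrations giving total branching inhibition counted as positive.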

[3] = HS578T cell line, Table Ib, read-out: IC50 ATP-Assay HS578T after 72 h
[4] = SF126, 72 h, Table IIa, read-out: IC50 ATP-Assay after 72 h SF126
[5] = U118, 72 h, Table IIa, read-out: IC50 ATP-Assay after 72 h U118
[6] = Homo sapiens, A 172, A172 cells, read-out: IC50 Wound healing Assay A172
[7] = Homo sapiens, SF-126, SF126 cells, read-out: IC50 Wound healing Assay SF126
[8] = Homo sapiens, C8161 cells, read-out: IC50 Wound healing Assay C8161
[9] = SF763 cells, read-out: IC50 Wound healing Assay SF763
[10] = U118 cells, read-out: IC50 Wound healing Assay U118
[11] = Hs578T, Table IIa, read-out: IC50 ATP-Assay after 72 h Hs578T

Row | Structure (SMILES) | pIC50 (indicated cell line; [6]) | pIC50 (indicated cell line; [7]) | pIC50 (indicated cell line; [8]) | pIC50 (indicated cell line; [9]) | pIC50 (indicated cell line; [10]) | melting point [°C] | pIC50 (Hs578T [1]; [3]) | pIC50 (SF126; [4]) | pIC50 (U118; [5]) | pIC50 (Hs578T [2]) | pIC50 (Hs578T [1]; [11]) | pIC50 (SF126; cell vitality assay, SF126, Table IIb, read-out: IC50 SF126) | pIC50 (U118; cell vitality assay, U118, Table IIc, read-out: IC50 U118)
1 | COc1cc2c(Oc3ccc(NS(=O)(=O)c4ccccc4C(F)(F)F)cc3F)ccnc2cc1OCCCN(C)C [Example 100, N-{4-[7-(3-Dimethylamino-propoxy)-6-methoxy-quinolin-4-yloxy]-3-fluoro-phenyl}-2-trifluoromethyl-benzenesulfonamide] | ≥ 4.90 | ≥ 4.90 | 4.30 to 4.90 | ≥ 4.90 | ≥ 4.90 | 89 to 91 | ≥ 4.90 | ≥ 4.90 | ≥ 4.90 | ≥ 5.00 |  |  | 
2 | COc1cc2c(Oc3ccc(NS(=O)(=O)c4ccc(F)cc4F)cc3F)ccnc2cc1OCCCN1CCCC(C)C1 (stereo not shown) [Example 47, 2,4-Difluoro-N-(3-fluoro-4-{6-methoxy-7-[3-(3-methyl-piperidin-1-yl)-propoxy]-quinolin-4-yloxy}-phenyl)-benzenesulfonamide] | ≥ 4.90 | ≥ 4.90 | ≥ 4.90 | ≥ 4.90 | ≥ 4.90 | 118 to 120 | ≥ 4.90 | ≥ 4.90 | ≥ 4.90 | ≥ 5.00 | ≥ 4.90 |  | 
3 | COC(=O)c1sccc1S(=O)(=O)Nc1ccc(Oc2ccnc3cc(OCCCN4CCCC(C)C4)c(OC)cc23)c(F)c1 (stereo not shown) [Example 66, 3-(3-Fluoro-4-{6-methoxy-7-[3-(3-methyl-piperidin-1-yl)-propoxy]-quinolin-4-yloxy}-phenylsulfamoyl)-thiophene-2-carboxylic acid methyl ester] | ≥ 4.90 | ≥ 4.90 |  |  | ≥ 4.90 | 132 to 134 | ≥ 4.90 | ≥ 4.90 | ≥ 4.90 | 4.60 to 5.00 |  | ≥ 4.90 | ≥ 4.90
4 | COc1cc2c(Oc3ccc(NS(=O)(=O)c4ccccc4OC(F)(F)F)cc3F)ccnc2cc1OCCCN1CCCC(C)C1 (stereo not shown) [Example 45, N-(3-Fluoro-4-{6-methoxy-7-[3-(3-methyl-piperidin-1-yl)-propoxy]-quinolin-4-yloxy}-phenyl)-2-trifluoromethoxy-benzenesulfonamide] | ≥ 4.90 | ≥ 4.90 |  |  | ≥ 4.90 | 128 to 130 | ≥ 4.90 | ≥ 4.90 | ≥ 4.90 | ≥ 5.00 |  |  | 
5 | COc1cc2c(Oc3ccc(NS(=O)(=O)c4cccc(Cl)c4F)cc3F)ccnc2cc1OCCCN1CCCC(C)C1 (stereo not shown) [Example 54, 3-Chloro-2-fluoro-N-(3-fluoro-4-{6-methoxy-7-[3-(3-methyl-piperidin-1-yl)-propoxy]-quinolin-4-yloxy}-phenyl)-benzenesulfonamide] | ≥ 4.90 | ≥ 4.90 |  |  | ≥ 4.90 | 125 to 127 | ≥ 4.90 | 4.30 to 4.90 | ≥ 4.90 | 4.60 to 5.00 |  |  | 
6 | COc1cc2c(Oc3ccc(NS(=O)(=O)c4ccccc4OC(F)(F)F)cc3F)ccnc2cc1OCCCN1CCN(C)CC1 [Example 25, N-(3-Fluoro-4-{6-methoxy-7-[3-(4-methyl-piperazin-1-yl)-propoxy]-quinolin-4-yloxy}-phenyl)-2-trifluoromethoxy-benzenesulfonamide] |  |  | 4.30 to 4.90 | 4.30 to 4.90 |  | 86 to 90 |  | ≥ 4.90 | ≥ 4.90 | ≥ 5.00 | ≥ 4.90 |  | 
7 | COc1cc2c(Oc3ccc(NS(=O)(=O)c4ccccc4Cl)cc3F)ccnc2cc1OCCCN1CCN(C)CC1 [Example 29, 2-Chloro-N-(3-fluoro-4-{6-methoxy-7-[3-(4-methyl-piperazin-1-yl)-propoxy]-quinolin-4-yloxy}-phenyl)-benzenesulfonamide] |  |  | ≥ 4.90 | ≥ 4.90 |  | 96 to 98 |  | ≥ 4.90 | ≥ 4.90 | ≥ 5.00 | 4.30 to 4.90 |  | 
8 | COc1cc2c(Oc3ccc(NS(=O)(=O)c4cc(C)ccc4F)cc3F)ccnc2cc1OCCCN1CCCC(C)C1 (stereo not shown) [Example 55] |  |  | 4.30 to 4.90 | 4.30 to 4.90 |  | 149 to 151 | 4.30 to 4.90 | ≥ 4.90 | 4.30 to 4.90 | ≥ 5.00 | 4.30 to 4.90 |  | 
9 | COc1cc2c(Oc3ccc(NS(=O)(=O)c4cccc(Oc5ccccc5)c4)cc3F)ccnc2cc1OCCCN1CCCCC1 [Example 10, N-{3-Fluoro-4-[6-methoxy-7-(3-piperidin-1-yl-propoxy)-quinolin-4-yloxy]-phenyl}-3-phenoxy-benzenesulfonamide] | ≥ 4.90 | ≥ 4.90 | ≥ 4.90 | ≥ 4.90 | ≥ 4.90 | 146 to 147 | 4.30 to 4.90 | ≥ 4.90 | ≥ 4.90 | ≥ 5.00 | 4.30 to 4.90 |  | 
10 | COc1cc2c(Oc3ccc(NS(=O)(=O)c4ccccc4Cl)cc3F)ccnc2cc1OCCCN1CCCC(C)C1 (stereo not shown) [Example 38, 2-Chloro-N-(3-fluoro-4-{6-methoxy-7-[3-(3-methyl-piperidin-1-yl)-propoxy]-quinolin-4-yloxy}-phenyl)-benzenesulfonamide] | ≥ 4.90 | ≥ 4.90 | ≥ 4.90 | 4.30 to 4.90 | ≥ 4.90 | 115 to 118 | 4.30 to 4.90 | ≥ 4.90 | ≥ 4.90 | ≥ 5.00 | 4.30 to 4.90 |  | 

More lines, main results first:

Row | pIC50 (indicated cell line; [6]) | pIC50 (indicated cell line; [7]) | pIC50 (indicated cell line; [8]) | pIC50 (indicated cell line; [9]) | pIC50 (indicated cell line; [10]) | melting point [°C] | Structure (SMILES) | pIC50 (Hs578T [1]; [3]) | pIC50 (SF126; [4]) | pIC50 (U118; [5]) | pIC50 (Hs578T [2]) | pIC50 (Hs578T [1]; [11]) | pIC50 (SF126; cell vitality assay, SF126, Table IIb, read-out: IC50 SF126) | pIC50 (U118; cell vitality assay, U118, Table IIc, read-out: IC50 U118)
11 | ≥ 4.90 | ≥ 4.90 |  |  | ≥ 4.90 | 139 to 141 | COC(=O)c1sccc1S(=O)(=O)Nc1ccc(Oc2ccnc3cc(OCCCN4CCC(C)CC4)c(OC)cc23)c(F)c1 [Example 156, 3-(3-Fluoro-4-{6-methoxy-7-[3-(4-methyl-piperidin-1-yl)-propoxy]-quinolin-4-yloxy}-phenylsulfamoyl)-thiophene-2-carboxylic acid methyl ester] | ≥ 4.90 | ≥ 4.90 | ≥ 4.90 | 4.60 to 5.00 |  |  | 
12 |  |  | ≥ 4.90 | ≥ 4.90 |  | 125 to 127 | COc1cc2c(Oc3ccc(NS(=O)(=O)c4ccc(F)c(C#N)c4)cc3F)ccnc2cc1OCCCN1CCCC(C)C1 (stereo not shown) [Example 72, 3-Cyano-4-fluoro-N-(3-fluoro-4-{6-methoxy-7-[3-(3-methyl-piperidin-1-yl)-propoxy]-quinolin-4-yloxy}-phenyl)-benzenesulfonamide] |  | 4.30 to 4.90 | 4.30 to 4.90 | ≥ 5.00 | 4.30 to 4.90 |  | 
13 | ≥ 4.90 | ≥ 4.90 | 4.30 to 4.90 | ≥ 4.90 | ≥ 4.90 | 103 to 105 | COc1cc2c(Oc3ccc(NS(=O)(=O)c4ccccc4C(F)(F)F)cc3Cl)ccnc2cc1OCCCN1CCN(C)CC1 [Example 87, N-(3-Chloro-4-{6-methoxy-7-[3-(4-methyl-piperazin-1-yl)-propoxy]-quinolin-4-yloxy}-phenyl)-2-trifluoromethyl-benzenesulfonamide] | 4.30 to 4.90 | ≥ 4.90 | ≥ 4.90 | ≥ 5.00 | 4.30 to 4.90 |  | 
14 | ≥ 4.90 | ≥ 4.90 |  |  | ≥ 4.90 | 167 to 168 | COC(=O)c1sccc1S(=O)(=O)Nc1ccc(Oc2ccnc3cc(OCCCN4CCOCC4)c(OC)cc23)c(F)c1 [Example 157, 3-{3-Fluoro-4-[6-methoxy-7-(3-morpholin-4-yl-propoxy)-quinolin-4-yloxy]-phenylsulfamoyl}-thiophene-2-carboxylic acid methyl ester] | ≥ 4.90 | ≥ 4.90 | ≥ 4.90 | 4.60 to 5.00 |  |  | 
15 | ≥ 4.90 | ≥ 4.90 |  |  | 4.30 to 4.90 | 94 to 96 | COc1cc2c(Oc3ccc(NS(=O)(=O)c4ccccc4OC(F)(F)F)cc3F)ccnc2cc1OCCCN(C)C [Example 179, N-{4-[7-(3-Dimethylamino-propoxy)-6-methoxy-quinolin-4-yloxy]-3-fluoro-phenyl}-2-trifluoromethoxy-benzenesulfonamide] | ≥ 4.90 | ≥ 4.90 | ≥ 4.90 | 4.60 to 5.00 |  |  | 
